This is an account of results in patent EP0068715A1, “Beta-lactam antibacterial agents, their preparation and use” (BEECHAM GROUP PLC, priority 1981, dated 1983).

Holding throughout (assay): standard MIC synergy test with amoxycillin
Holding throughout (format): cell-based
Conditions in all cases: amoxycillin alone, β-Lactamase Inhibitor: None

The test system of one assay is E. coli JT39. The source says:
(§1) In a standard MIC synergy test, the following data were obtained for the compounds of this invention:-

Another assay has as its system Kleb. E70.
Description: as §1

The next assay relates to Proteus C889.
Description: as §1

SMILES strings stand for the structures. Some results are limits rather than exact numbers.

With `CC1(C)S[C@@H]2[C@H](NC(=O)[C@H](N)c3ccc(O)cc3)C(=O)N2[C@H]1C(=O)O` [amoxycillin], the “MIC of amoxycillin (μg/ml) E. coli JT39” value in the assay on E. coli JT39 was 2000 µg/mL. Further, the “MIC of amoxycillin (μg/ml) Kleb. E70” value with Kleb. E70 was 500 µg/mL. Also, the “MIC of amoxycillin (μg/ml) Proteus C889” value in the assay with Proteus C889 was over 2000 µg/mL.
